{
  "source": "paper PMC4979471",
  "about": "(Cell Death Discovery, 2015)",
  "experiment_in_all_cases": "Kinase selectivity, P33-radiolabeled assay",
  "format_in_all_cases": "biochemical",
  "conditions_in_all_cases": "10 μM ATP",
  "key": {"CAMK1d": {"target": "T1, CAMK1d (Homo sapiens, UniProt Q8IU85)", "T1 construct": "purchased Reaction Biology Corp", "T1 sequence (Q8IU85 whole entry)": "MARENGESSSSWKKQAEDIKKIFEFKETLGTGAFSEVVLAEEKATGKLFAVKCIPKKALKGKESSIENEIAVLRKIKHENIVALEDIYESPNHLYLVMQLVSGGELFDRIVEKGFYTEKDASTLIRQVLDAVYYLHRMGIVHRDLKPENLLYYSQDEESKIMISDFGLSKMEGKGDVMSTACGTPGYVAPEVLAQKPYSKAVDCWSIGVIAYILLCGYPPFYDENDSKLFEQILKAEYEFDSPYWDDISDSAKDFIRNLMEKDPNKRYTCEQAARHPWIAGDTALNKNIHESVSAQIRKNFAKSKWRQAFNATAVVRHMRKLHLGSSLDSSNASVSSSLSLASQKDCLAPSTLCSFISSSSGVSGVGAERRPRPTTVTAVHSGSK", "outline": "(§1)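 ATP at 10 μM; test article at 10 μM, single point, two replicates. Output is activity as % of DMSO.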"}, "CDK1/cyclin A": {"target": "T2, CDK1/cyclin A (Homo sapiens, UniProt P06493)", "T2 construct": "purchased Reaction Biology Corp", "T2 sequence (P06493 whole entry)": "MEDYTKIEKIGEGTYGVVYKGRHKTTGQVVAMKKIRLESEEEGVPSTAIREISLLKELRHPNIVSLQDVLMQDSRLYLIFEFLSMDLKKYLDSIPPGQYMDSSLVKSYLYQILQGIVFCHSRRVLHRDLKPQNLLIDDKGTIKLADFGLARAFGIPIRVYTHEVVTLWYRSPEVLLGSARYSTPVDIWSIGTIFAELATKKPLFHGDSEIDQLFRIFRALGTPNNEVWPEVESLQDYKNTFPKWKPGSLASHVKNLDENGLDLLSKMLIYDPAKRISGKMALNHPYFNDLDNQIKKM", "T2 sequence (P20248 whole entry partner)": "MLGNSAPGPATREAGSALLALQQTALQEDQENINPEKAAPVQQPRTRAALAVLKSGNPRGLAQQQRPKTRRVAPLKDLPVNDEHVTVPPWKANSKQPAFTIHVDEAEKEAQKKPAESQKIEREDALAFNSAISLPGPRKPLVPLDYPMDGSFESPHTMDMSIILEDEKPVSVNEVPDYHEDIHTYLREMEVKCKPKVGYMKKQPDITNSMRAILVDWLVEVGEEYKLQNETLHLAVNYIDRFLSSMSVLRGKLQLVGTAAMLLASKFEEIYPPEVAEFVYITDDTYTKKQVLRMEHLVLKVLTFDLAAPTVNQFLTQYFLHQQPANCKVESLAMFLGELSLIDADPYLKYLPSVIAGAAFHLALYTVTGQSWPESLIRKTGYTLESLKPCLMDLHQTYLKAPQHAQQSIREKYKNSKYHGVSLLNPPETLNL", "outline": "as §1"}, "DRAK1/STK17A": {"target": "T3, DRAK1/STK17A (Homo sapiens, UniProt Q9UEE5)", "T3 construct": "purchased Reaction Biology Corp", "T3 sequence (Q9UEE5 1-414)": "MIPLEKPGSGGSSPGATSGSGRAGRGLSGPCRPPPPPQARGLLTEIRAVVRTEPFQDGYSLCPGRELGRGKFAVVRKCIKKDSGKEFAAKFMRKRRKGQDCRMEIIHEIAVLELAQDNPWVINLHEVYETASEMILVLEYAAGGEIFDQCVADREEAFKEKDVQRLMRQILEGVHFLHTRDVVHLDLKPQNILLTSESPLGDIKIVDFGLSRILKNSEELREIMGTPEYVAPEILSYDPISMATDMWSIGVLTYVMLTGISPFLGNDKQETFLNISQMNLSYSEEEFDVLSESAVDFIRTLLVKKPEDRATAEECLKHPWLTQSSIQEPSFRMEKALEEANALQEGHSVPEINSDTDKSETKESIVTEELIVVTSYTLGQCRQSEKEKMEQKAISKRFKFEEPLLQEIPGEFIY", "outline": "as §1"}, "NEK11": {"target": "T4, NEK11 (Homo sapiens, UniProt Q8NG66)", "T4 construct": "purchased Reaction Biology Corp", "T4 sequence (Q8NG66 1-645)": "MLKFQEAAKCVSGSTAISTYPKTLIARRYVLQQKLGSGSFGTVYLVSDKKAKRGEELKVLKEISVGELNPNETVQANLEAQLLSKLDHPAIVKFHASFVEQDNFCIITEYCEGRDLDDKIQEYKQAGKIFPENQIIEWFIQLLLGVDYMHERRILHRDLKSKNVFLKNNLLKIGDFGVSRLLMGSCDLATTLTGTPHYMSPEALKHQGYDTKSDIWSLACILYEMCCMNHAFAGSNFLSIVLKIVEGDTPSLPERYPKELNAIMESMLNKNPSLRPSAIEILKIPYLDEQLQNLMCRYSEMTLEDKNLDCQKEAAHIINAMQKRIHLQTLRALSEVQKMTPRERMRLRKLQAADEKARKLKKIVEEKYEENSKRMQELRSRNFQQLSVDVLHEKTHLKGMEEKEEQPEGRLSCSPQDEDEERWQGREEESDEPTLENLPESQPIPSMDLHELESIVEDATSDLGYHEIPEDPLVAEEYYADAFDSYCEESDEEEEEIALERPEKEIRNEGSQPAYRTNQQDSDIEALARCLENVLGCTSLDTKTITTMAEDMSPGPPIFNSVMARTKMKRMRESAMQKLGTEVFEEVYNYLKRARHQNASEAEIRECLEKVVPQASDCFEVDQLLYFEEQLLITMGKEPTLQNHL", "outline": "as §1"}, "PKAcb": {"target": "T5, PKAcb (Homo sapiens, UniProt P22694)", "T5 construct": "purchased Reaction Biology Corp", "outline": "as §1"}, "PKCg": {"target": "T6, PKCg (Homo sapiens, UniProt P05129)", "T6 construct": "purchased Reaction Biology Corp", "outline": "as §1"}, "PKCiota": {"target": "T7, PKCiota (Homo sapiens, UniProt P41743)", "T7 construct": "purchased Reaction Biology Corp", "T7 sequence (P41743 1-596)": "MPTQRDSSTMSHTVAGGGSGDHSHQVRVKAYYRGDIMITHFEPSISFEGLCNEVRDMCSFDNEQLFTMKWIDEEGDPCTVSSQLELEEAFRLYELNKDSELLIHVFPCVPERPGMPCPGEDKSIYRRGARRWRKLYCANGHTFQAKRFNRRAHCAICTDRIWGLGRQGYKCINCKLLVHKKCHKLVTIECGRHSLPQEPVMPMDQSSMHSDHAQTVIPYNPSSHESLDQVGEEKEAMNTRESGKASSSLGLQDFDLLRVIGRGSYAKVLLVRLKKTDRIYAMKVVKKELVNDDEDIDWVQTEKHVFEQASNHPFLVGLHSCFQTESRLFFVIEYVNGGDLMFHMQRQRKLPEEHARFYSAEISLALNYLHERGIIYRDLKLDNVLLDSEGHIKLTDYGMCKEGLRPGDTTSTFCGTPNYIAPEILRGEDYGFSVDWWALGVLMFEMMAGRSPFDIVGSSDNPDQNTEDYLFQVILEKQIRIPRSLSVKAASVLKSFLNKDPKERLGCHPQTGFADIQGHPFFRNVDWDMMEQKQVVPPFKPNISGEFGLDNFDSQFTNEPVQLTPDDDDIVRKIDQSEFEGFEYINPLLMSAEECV", "outline": "as §1"}, "SLK/STK2": {"target": "T8, SLK/STK2 (Homo sapiens, UniProt Q9H2G2)", "T8 construct": "purchased Reaction Biology Corp", "T8 sequence (Q9H2G2 whole entry)": "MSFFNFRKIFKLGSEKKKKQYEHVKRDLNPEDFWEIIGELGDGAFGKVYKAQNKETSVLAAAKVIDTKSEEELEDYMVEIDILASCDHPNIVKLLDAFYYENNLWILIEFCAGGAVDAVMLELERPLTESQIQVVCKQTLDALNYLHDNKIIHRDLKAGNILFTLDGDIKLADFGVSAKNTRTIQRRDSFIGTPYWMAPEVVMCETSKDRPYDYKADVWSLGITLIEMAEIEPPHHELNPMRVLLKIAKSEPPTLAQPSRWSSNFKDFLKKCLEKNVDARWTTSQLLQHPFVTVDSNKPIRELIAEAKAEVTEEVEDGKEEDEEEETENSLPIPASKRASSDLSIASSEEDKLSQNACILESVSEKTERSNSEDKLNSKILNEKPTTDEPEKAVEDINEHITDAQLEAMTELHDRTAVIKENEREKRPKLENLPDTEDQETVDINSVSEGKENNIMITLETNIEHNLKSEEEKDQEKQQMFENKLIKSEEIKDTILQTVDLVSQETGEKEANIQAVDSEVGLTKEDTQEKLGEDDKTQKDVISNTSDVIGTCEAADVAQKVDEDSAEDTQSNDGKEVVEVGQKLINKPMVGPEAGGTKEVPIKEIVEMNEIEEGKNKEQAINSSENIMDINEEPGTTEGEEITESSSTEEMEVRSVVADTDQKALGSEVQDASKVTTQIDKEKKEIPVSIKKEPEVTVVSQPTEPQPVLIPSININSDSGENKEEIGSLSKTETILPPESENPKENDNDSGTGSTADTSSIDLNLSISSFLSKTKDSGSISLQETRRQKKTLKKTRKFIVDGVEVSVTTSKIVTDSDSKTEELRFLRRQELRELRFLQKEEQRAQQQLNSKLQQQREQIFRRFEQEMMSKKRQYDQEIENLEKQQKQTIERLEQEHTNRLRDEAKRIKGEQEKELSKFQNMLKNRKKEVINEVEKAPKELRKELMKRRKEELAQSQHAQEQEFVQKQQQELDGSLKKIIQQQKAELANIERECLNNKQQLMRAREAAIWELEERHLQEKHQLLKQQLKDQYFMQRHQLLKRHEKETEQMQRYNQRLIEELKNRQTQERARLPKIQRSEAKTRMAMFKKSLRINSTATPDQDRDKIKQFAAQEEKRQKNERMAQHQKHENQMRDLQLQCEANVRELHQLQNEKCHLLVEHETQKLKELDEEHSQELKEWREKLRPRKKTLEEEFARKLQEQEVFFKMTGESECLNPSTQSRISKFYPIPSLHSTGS", "outline": "as §1"}, "VRK1": {"target": "T9, VRK1 (Homo sapiens, UniProt Q99986)", "T9 construct": "purchased Reaction Biology Corp", "T9 sequence (Q99986 1-396)": "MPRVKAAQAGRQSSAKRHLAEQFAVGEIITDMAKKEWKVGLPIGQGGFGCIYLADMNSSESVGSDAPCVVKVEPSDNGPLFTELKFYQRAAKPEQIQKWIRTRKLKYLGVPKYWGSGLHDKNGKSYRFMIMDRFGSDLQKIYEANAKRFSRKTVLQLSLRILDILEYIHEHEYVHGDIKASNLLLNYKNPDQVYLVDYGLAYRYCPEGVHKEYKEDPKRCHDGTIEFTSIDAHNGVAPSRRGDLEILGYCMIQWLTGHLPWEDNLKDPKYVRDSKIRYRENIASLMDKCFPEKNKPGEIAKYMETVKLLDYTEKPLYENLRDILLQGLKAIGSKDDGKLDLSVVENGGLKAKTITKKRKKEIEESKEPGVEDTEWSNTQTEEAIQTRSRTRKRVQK", "outline": "as §1"}, "[1]": {"conditions": "read-out: % Enzyme Activity (relative to DMSO controls) AVG"}, "[2]": {"conditions": "read-out: % Enzyme Activity (relative to DMSO controls) Data 1"}, "[3]": {"conditions": "read-out: % Enzyme Activity (relative to DMSO controls) Data 2"}},
  "note": "Where two headings read alike, the source gives them in different places.",
  "data": [
    {"smiles": "CC(C)(C)C(=O)N1N=CC[C@H]1c1ccccc1", "note": "[GSK′963]", "values": [
      {"measurement": "remaining activity at 10 µM", "setting": "CAMK1d; [1]", "result": 90.2, "unit": "%"},
      {"measurement": "remaining activity at 10 µM", "setting": "CAMK1d; [2]", "result": 88.6, "unit": "%"},
      {"measurement": "remaining activity at 10 µM", "setting": "CAMK1d; [3]", "result": 91.8, "unit": "%"},
      {"measurement": "remaining activity at 10 µM", "setting": "CDK1/cyclin A; [1]", "result": 105, "unit": "%"},
      {"measurement": "remaining activity at 10 µM", "setting": "CDK1/cyclin A; [2]", "result": 107, "unit": "%"},
      {"measurement": "remaining activity at 10 µM", "setting": "CDK1/cyclin A; [3]", "result": 102, "unit": "%"},
      {"measurement": "remaining activity at 10 µM", "setting": "DRAK1/STK17A; [1]", "result": 99.7, "unit": "%"},
      {"measurement": "remaining activity at 10 µM", "setting": "DRAK1/STK17A; [2]", "result": 98.1, "unit": "%"},
      {"measurement": "remaining activity at 10 µM", "setting": "DRAK1/STK17A; [3]", "result": 101, "unit": "%"},
      {"measurement": "remaining activity at 10 µM", "setting": "NEK11; [1]", "result": 79.1, "unit": "%"},
      {"measurement": "remaining activity at 10 µM", "setting": "NEK11; [2]", "result": 77.3, "unit": "%"},
      {"measurement": "remaining activity at 10 µM", "setting": "NEK11; [3]", "result": 80.9, "unit": "%"},
      {"measurement": "remaining activity at 10 µM", "setting": "PKAcb; [1]", "result": 111, "unit": "%"},
      {"measurement": "remaining activity at 10 µM", "setting": "PKAcb; [2]", "result": 110, "unit": "%"},
      {"measurement": "remaining activity at 10 µM", "setting": "PKAcb; [3]", "result": 113, "unit": "%"},
      {"measurement": "remaining activity at 10 µM", "setting": "PKCg; [1]", "result": 88.5, "unit": "%"},
      {"measurement": "remaining activity at 10 µM", "setting": "PKCg; [2]", "result": 86.8, "unit": "%"},
      {"measurement": "remaining activity at 10 µM", "setting": "PKCg; [3]", "result": 90.2, "unit": "%"},
      {"measurement": "remaining activity at 10 µM", "setting": "PKCiota; [1]", "result": 109, "unit": "%"},
      {"measurement": "remaining activity at 10 µM", "setting": "PKCiota; [2]", "result": 105, "unit": "%"},
      {"measurement": "remaining activity at 10 µM", "setting": "PKCiota; [3]", "result": 114, "unit": "%"},
      {"measurement": "remaining activity at 10 µM", "setting": "SLK/STK2; [1]", "result": 86.9, "unit": "%"},
      {"measurement": "remaining activity at 10 µM", "setting": "SLK/STK2; [2]", "result": 85.3, "unit": "%"},
      {"measurement": "remaining activity at 10 µM", "setting": "SLK/STK2; [3]", "result": 88.5, "unit": "%"},
      {"measurement": "remaining activity at 10 µM", "setting": "VRK1; [1]", "result": 78.2, "unit": "%"},
      {"measurement": "remaining activity at 10 µM", "setting": "VRK1; [2]", "result": 80.9, "unit": "%"},
      {"measurement": "remaining activity at 10 µM", "setting": "VRK1; [3]", "result": 75.4, "unit": "%"}
    ]}
  ]
}
